Experimental data published in patent US11098059B2, “PRMT5 inhibitors” (Merck Sharp & Dohme Corp., priority 2017, dated 2021).
Read-outs that look alike come from different tables or passages of the source.

Columns and labels:
PRMT5 = PRMT5 (Homo sapiens (Human), UniProt O14744); assay: PRMT5 Cell Target Engagement (TE) Assay; assay type: cell-based; conditions: treated 3 days, nuclear SDMA by high content imaging, top concentration 10000 nM
Excerpt: PRMT5 Cell Target Engagement (TE) Assay
The PRMT5 TE assay is a biomarker assay for identifying compounds that inhibit symmetric dimethylation of arginine (SDMA) of PRMT5 substrates. This assay detects symmetrically dimethylated nuclear proteins using high content imaging technology. Detection of the expression of symmetrically dimethylated nucleo proteins is through a mixture of primary rabbit monoclonal antibodies to SDMA (CST 13222), which in turn recognized by an Alexafluor 488 dye-conjugated anti-rabbit IgG secondary antibody. The IN Cell Analyzer 2200 measures nuclear Alexafluor 488 fluorescent dye intensity that is directly related to the level of expression of symmetrically dimethylated nuclear proteins at the single cell level. Nuclear AF488 dye intensities are compared to the mean value for DMSO treated cells […] to report percent of inhibition for each compound-treated well.
Each well of a BD falcon collagen coated black/clear bottom 384-well plate was seeded with 4000 MCF-7 cells and allowed to attach for 5 hours. Media from cell plate was removed at 0.5 mm above the bottom of the plate and replaced with 30 μL of fresh media containing 1.2× compounds in 0.1% DMSO. Cells were treated for 3 days in 37° C. CO2 incubator. On day 3, cells were fixed with Cytofix, permeablized with 0.4% Triton-X-100/Cytofix, and washed with D-PBS without Ca/Mg. Cells were blocked with Licor Odessey blocking reagent for one hour at room temperature, followed by incubation with anti-SDMA (1:1000) antibody at 4° C. overnight. 1 antibody was removed, followed by three washings with DPBS without Ca/Mg and 0.05% Tween20. Hoechst (5 μg/ml), Cell Mask deep stain (1:2000) and Alexa488-conjugated goat anti-rabbit IgG (2 μg/mL) was added for 1 hour at room temperature. A final washing step (three washes) was performed before sealing plate for imaging on In Cell Analyzer 2200. Images from analyzer were uploaded to Columbus (at WP) for image analysis. IC50 values were determined by 4 parameters robust fit of percent fluorescence units vs. (Log10) compound concentrations.

[1] = target: Full-length (FL)-PRMT5-MEP50 enzyme complex (Homo sapiens (Human), UniProt O14744); assay: PRMT5-MEP50 Enzyme Methylation Assay; assay type: biochemical; on Enzyme Methylation Assay IC50 1: top concentration 100000 nM
Description: PRMT5-MEP50 Enzyme Methylation Assay
PRMT5/MEP50 biochemical assay is a direct measurement of the methylation activity of the enzyme complex on a short peptide substrate derived from the N-terminus of H4 histone. The methylation experiment is performed with recombinant protein. The assessment of inhibitory effect (IC50) of small molecules is measured by the effectiveness of the compounds to inhibit this reaction.
To each well of a white ProxiPlus 384 well-plate, 100 nL of compound (1% DMSO in final assay volume of 10 μL) was dispensed, followed by the addition of 8 μL of 1× assay buffer (50 mM Bicine pH 8.0, 1 mM DTT, 0.004% Tween20, 0.01% BSA) containing 0.5 nM of Full-length (FL)-PRMT5-MEP50 enzyme complex (recombinant proteins from baculovirus-transfected Sf21 cells: FL-PRMT5; MW=[…] and FL-MEP50; MW=38614). Plates were sealed and placed in a 37° C. humidified chamber for 30 minutes pre-incubation with compounds. Subsequently, each reaction was initiated by the addition of 2 μL 1× assay buffer containing 75 nM biotinylated H4R3(Me1) peptide, and 15 μM S-(5′-Adenosyl)-L-Methionine Chloride (SAM). The final reaction in each well of 10 μL consists of 0.5 nM PRMT5-MEP50, 75 nM biotinylated-peptide, and 15 μM SAM. Methylation reactions were allowed to proceed for 150 minutes in a sealed plate at 37° C. Reactions were immediately quenched by the addition of 1 μL of 10% formic acid. Plates were then frozen and shipped to SAMDI™ Tech Inc. to determine the percent conversion from […]. IC50 values were determined by 7 parameters biphasic fit model plotting the percent product conversion vs. (Log10) compound concentrations.

[2] = MCF-7 cells, read-out: TE Assay EC50
[3] = read-out: Enzyme Methylation Assay IC50_1
[4] = read-out: Enzyme Methylation Assay IC50_2

Sequence of Full-length (FL)-PRMT5-MEP50 enzyme complex (O14744 whole entry): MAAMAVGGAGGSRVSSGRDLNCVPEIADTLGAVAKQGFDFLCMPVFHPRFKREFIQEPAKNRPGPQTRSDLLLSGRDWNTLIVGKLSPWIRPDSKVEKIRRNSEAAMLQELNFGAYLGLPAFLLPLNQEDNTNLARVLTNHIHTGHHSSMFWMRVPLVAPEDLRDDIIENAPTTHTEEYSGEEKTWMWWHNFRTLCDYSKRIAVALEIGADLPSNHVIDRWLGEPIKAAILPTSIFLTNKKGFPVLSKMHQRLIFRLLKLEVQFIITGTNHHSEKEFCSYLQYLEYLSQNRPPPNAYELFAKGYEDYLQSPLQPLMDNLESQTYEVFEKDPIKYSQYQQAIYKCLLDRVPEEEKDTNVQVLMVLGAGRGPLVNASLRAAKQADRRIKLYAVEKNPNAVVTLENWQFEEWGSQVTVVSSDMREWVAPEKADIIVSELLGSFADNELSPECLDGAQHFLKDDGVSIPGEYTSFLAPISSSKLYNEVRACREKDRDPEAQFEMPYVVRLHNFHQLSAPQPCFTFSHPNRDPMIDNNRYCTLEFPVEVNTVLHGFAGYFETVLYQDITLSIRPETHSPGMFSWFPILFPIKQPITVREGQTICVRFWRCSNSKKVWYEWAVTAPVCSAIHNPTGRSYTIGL
Sequence of Full-length (FL)-PRMT5-MEP50 enzyme complex (Q9BQA1 whole entry partner): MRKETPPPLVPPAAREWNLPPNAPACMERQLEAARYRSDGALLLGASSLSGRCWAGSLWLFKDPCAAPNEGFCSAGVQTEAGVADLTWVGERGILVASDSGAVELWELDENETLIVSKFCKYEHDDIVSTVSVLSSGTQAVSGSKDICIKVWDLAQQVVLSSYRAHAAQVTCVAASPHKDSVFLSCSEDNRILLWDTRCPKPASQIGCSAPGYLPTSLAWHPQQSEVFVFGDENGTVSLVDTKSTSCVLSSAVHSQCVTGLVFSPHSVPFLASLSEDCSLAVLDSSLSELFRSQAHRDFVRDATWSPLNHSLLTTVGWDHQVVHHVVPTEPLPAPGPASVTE
Sequence of PRMT5 (O14744 whole entry): as the sequence (O14744 whole entry) above
Sequence of PRMT5 (Q9BQA1 whole entry partner): as the sequence (Q9BQA1 whole entry partner) above

Compound: CC[C@H]1CN(C[C@@H](O)[C@@H]2Cc3ccccc3CN2)C(=O)c2ccc(-c3ncnn3C)cc21 (single isomer, unassigned) [Example 6]
- EC50 (PRMT5; [2]): 1440 nM
- IC50 [1, 3]: 3.82 nM
- IC50 [1, 4]: 5080 nM

Compound: CC1(C)CN(C[C@H](O)[C@@H]2Cc3ccccc3CN2)C(=O)c2ccc(C(=O)N3C4CCC3COC4)cc21 [Example 20, 6-(3-oxa-8-azabicyclo[3.2.1]octane-8-carbonyl)-2-((S)-2-hydroxy-2-((S)-1,2,3,4-tetrahydroisoquinolin-3-yl)ethyl)-4,4-dimethyl-3,4-dihydroisoquinolin-1(2H)-one]
- EC50 (PRMT5; [2]): 153 nM
- IC50 [1, 3]: 12.9 nM
- IC50 [1, 4]: 4070 nM

Compound: CCC1CN(CC(O)[C@@H]2Cc3ccccc3CN2)C(=O)c2ccc(C(=O)N3C4CCC3COC4)cc21 (stereo partly drawn) [Example 12, 4-ethyl-2-{2-hydroxy-2-[(3S)-1,2,3,4-tetrahydroisoquinolin-3-yl]ethyl}-6-(3-oxa-8-azabicyclo[3.2.1]oct-8-ylcarbonyl)-3,4-dihydroisoquinolin-1(2H)-one]
- EC50 (PRMT5; TE Assay EC50, MCF-7 cells): 29.8 nM
- IC50 [1, 3]: 0.63 nM
- IC50 [1, 4]: 253 nM

Compound: CC1(C)CN(C[C@H](O)[C@@H]2Cc3ccccc3CN2)C(=O)c2ccc(C(=O)N3C4COC5C4OCC53)cc21 [Example 28, 6-(hexahydro-3,6-epiminofuro[3,2-b]furan-7-carbonyl)-2-((S)-2-hydroxy-2-((S)-1,2,3,4-tetrahydroisoquinolin-3-yl)ethyl)-4,4-dimethyl-3,4-dihydroisoquinolin-1(2H)-one]
- EC50 (PRMT5; [2]): ≥ 10000 nM
- IC50 [1, 3]: 34.3 nM
- IC50 [1, 4]: 34300 nM

Compound: CC[C@H]1CN(C[C@@H](O)[C@@H]2Cc3ccccc3CN2)C(=O)c2ccc(C(=O)N3C4CCC3COC4)cc21 (single isomer, unassigned) [Example 15]
- EC50 (PRMT5; [2]): 120 nM
- IC50 [1, 3]: 9.54 nM
- IC50 [1, 4]: 3210 nM

Compound: CO[C@@H]1C[C@H]2CC[C@@H](C1)N2C(=O)c1ccc2c(c1)C(C)(C)CN(C[C@@H](O)[C@@H]1Cc3ccccc3CN1)C2=O [Example 25, 2-((R)-2-hydroxy-2-((S)-1,2,3,4-tetrahydroisoquinolin-3-yl)ethyl)-6-((1R,3S,5S)-3-methoxy-8-azabicyclo[3.2.1]octane-8-carbonyl)-4,4-dimethyl-3,4-dihydroisoquinolin-1(2H)-one]
- EC50 (PRMT5; TE Assay EC50, MCF-7 cells): 3.81 nM
- IC50 [1, 3]: 0.44 nM
- IC50 [1, 4]: 50.1 nM

Compound: CC1(C)CN(C[C@H](O)[C@@H]2Cc3ccccc3CN2)C(=O)c2ccc(C(=O)N3[C@@H]4CC[C@H]3C[C@@H](O)C4)cc21 [Example 22, 2-((S)-2-hydroxy-2-((S)-1,2,3,4-tetrahydroisoquinolin-3-yl)ethyl)-6-((1R,3S,5S)-3-hydroxy-8-azabicyclo[3.2.1]octane-8-carbonyl)-4,4-dimethyl-3,4-dihydroisoquinolin-1(2H)-one]
- EC50 (PRMT5; [2]): 5280 nM
- IC50 [1, 3]: 50.1 nM
- IC50 [1, 4]: 15300 nM

Compound: CO[C@@H]1C[C@H]2CC[C@@H](C1)N2C(=O)c1ccc2c(c1)C(C)(C)CN(C[C@H](O)[C@@H]1Cc3ccccc3CN1)C2=O [Example 26, 2-((S)-2-hydroxy-2-((S)-1,2,3,4-tetrahydroisoquinolin-3-yl)ethyl)-6-((1R,3R,5S)-3-methoxy-8-azabicyclo[3.2.1]octane-8-carbonyl)-4,4-dimethyl-3,4-dihydroisoquinolin-1(2H)-one]
- EC50 (PRMT5; [2]): 4630 nM
- IC50 [1, 3]: 24.3 nM
- IC50 [1, 4]: 14600 nM
